Tests used:
SMN2-on minigene = test: SMN2-on cassette Firefly luciferase reporter assay in transfected HEK293 cells; type: cell-based, Human
Procedure: (§1) Cell culture, transfection, and LMI070/RG7800 treatment. Human embryonic kidney (HEK293) cells (obtained from CHOP Research Vector Core stock) were maintained in DMEM media containing 10% Fetal Bovine Serum (FBS), 1% L-Glutamine and 1% penicillin/streptomycin at 37° C. with 5% CO2. Cells were cultured in 24 well plates and transfected at 80-90% confluence using Lipofectamine 2000 transfection reagent, according to the manufacturer’s protocol. For all experiments, 4 hours after plasmid transfection, cells were treated with LMI070 (MedChemExpress, HY-19620, suspended in DMSO) or RG7800 (MedChemExpress, HY-101792A, suspended in H2O) at the indicated concentrations. Cells were tested for mycoplasma by Research Vector Core. None of the cells used in the study were listed in ICLAC database of commonly misidentified cell lines.
In vitro luciferase assays. HEK293 cells were cultured in DMEM (10% FBS (v/v), 1% Pen/ Strep (v/v), and 1% L-glutamine (v/v) in a 24-well plate. At 70%-80% confluence, cells were co-transfected with the Xon.Firefly luciferase cassettes (0.3 µg/well) and a SV40p-Renilla luciferase cassette as transfection control (0.02 µg/well). Four hours after transfections cells were treated either with LMI070 or RG7800 at indicated concentrations. At 24 h after transfection, cells were rinsed with ice-cold PBS and Renilla and Firefly luciferase activities were assessed using the Dual-Luciferase Reporter Assay System (Promega) according to the manufacturer’s instructions. Luminescent readouts were obtained with a Monolight 3010 luminometer (Pharmigen). Relative light units (RLUs) were calculated as the quotient of […] RLUs and results expressed relative to mock treated control cells.
For this, SMN2-on cassettes were generated to provide drug-induced reporter gene expression. HEK293 cells were transfected with the SMN2-on expression cassettes and luciferase activity evaluated in response to varying doses of LMI070 or RG7800. […]

HTT = test: X^on-SaCas9 regulated HTT exon 1 editing in HEK293 cells; type: cell-based, Human
Procedure: as §1
RNA extraction, RT-PCR, and Splicing assays. Total RNA was extracted using Trizol (Life Technologies) according to the manufacturer’s protocol, with the exception of 1 µL Glycoblue (Life Technologies) in addition to the aqueous phase on the isopropanol precipitation step and a single wash with cold 70% ethanol. To determine HTT expression levels after transfection, RNA samples were quantified by spectrophotometry and subsequently cDNAs generated from […] of total RNA with random hexamers (TaqMan RT reagents, Applied Biosystems). To determine human HTT expression levels in HEK293 cells, we used TaqMan probes for human HTT and glyceraldehyde 3-phosphate dehydrogenase (GAPDH) mRNAs obtained from Applied Biosystems. Relative HTT gene expression was determined using the ddCt method. […] Splicing was determined by PCR using the Phusion High-Fidelity polymerase (Thermofisher) and PCR products separated on a 2.5% agarose gel pre-stained with EtBr and spliced-in and spliced-out band densitometry performed using with the ChemiDoc Imaging System (BioRad) and Image Lab analysis software. Splicing induction from mouse tissues was determined using two custom TaqMan assays designed to determine total or LMI070-spliced in mRNA transcripts. The percentage of induction was determined by dividing the average Ct novel exon and average Ct Total, relative to control animals injected with AAV virus plus vehicle.
Western Blots. HEK293 cells were rinsed and lysed with Passive Lysis Buffer (PBL, Promega), protein concentrations determined using the DC protein assay (Bio-Rad), and 10-20 µg of protein loaded on a 3%-8% NuPAGE Tris-Acetate Gel in tris-acetate buffer (Novex Life Technologies) or a 4-12% NuPAGE TrisBis NuPAGE gels in MES buffer (Novex Life Technologies) to determine HTT, SaCas9, or eGFP protein levels, respectively, with β-catenin as loading control. […]

CC1(C)CC(Oc2ccc(-c3ccc(-c4cn[nH]c4)cc3O)nn2)CC(C)(C)N1 [LMI070, 5-(1H-Pyrazol-4-yl)-2-(6-((2,2,6,6-tetramethylpiperidin-4-yl)oxy)pyridazin-3-yl)phenol]
luciferase activity from the SMN2-on minigene (SMN2-on minigene; HEK293 cells, varying doses): induced luciferase activity
overall induction of luciferase, refined SMN2-on switch system (SMN2-on minigene; indSMN2 cassette, relative to DMSO treated cells (FIG. 1E: LMI070 100 nM)): approximately 20 fold
SaCas9 expression from X^on switch (HTT; HEK293 cells, varying doses of LMI070, western blot 24 h): clear dose response
HTT exon 1 editing versus constitutively expressed SaCas9 (HTT; X^on-SaCas9 plus gRNAs, 100 nM LMI070): equivalent editing
reduction of HTT transcripts (HTT; X^on-SaCas9 plus gRNAs, upon LMI070 treatment, RT-qPCR): 50%
HTT protein levels (HTT; X^on-SaCas9 plus gRNAs, upon LMI070 treatment, western blot): similarly reduced

— patent publication US20230340498A1, “COMPOSITIONS AND METHODS FOR INDUCIBLE ALTERNATIVE SPLICING REGULATION OF GENE EXPRESSION” (The Children's Hospital of Philadelphia, priority 2020, published 2023)
